Assay results as given in US9649378B2, “Cancer methods” (priority 2010, dated 2017).
Values joined by “and” are separate entries in the source; they are usually repeats but may differ in a detail not shown here. Equal entries are not always repeated. Where two headings read alike, the source gives them in different places.

Assays:
phospho-ERK [1] = assay: EGF induced phospho-ERK activation in OPCML transfected (BKS2.1) and control (SKOBS-V1.2) cells
Procedure: (§4) (B) The effect of OPCML knockdown on the efficiency of lapatinib-induced pERK attenuation was analysed; densitometry of pERK signal (mean values of 3 independent experiments).
OPCML transfected and control cells were pre-incubated with lapatinib, trastuzumab, cituximab, erlotinib and gefitinib.

FGFR1 = assay: GST-OPCML pull-down assay; type: binding; details: lysate of FGFR1 transfected cells or FGFR1 ECD protein
Procedure: (§1) FIG. 2: OPCML interacts with the ECD of HER2 and FGFR1 but not EGFR. (A) (i): Co-IP was performed using protein extracts from SKOBS-V1.2, SKOBS-3.5 and BKS2.1 (SKOBS-3.5 and BKS2.1 express 3 and 20-fold more OPCML protein than normal physiological levels seen in OSE-C2). The goat polyclonal anti-OPCML (R & D Systems) was used in initial IP and products were detected on Western blots employing respective Abs for EGFR and HER2. The reciprocal IP with a monoclonal to ECD of HER2 (Calbiochem) is shown with successful immunoblotting for OPCML in the BKS2.1 stable line (expressing 20-fold more OPCML); (ii) Co-IP using the OPCML Ab in SKOBS-V1.2 and BKS2.1 lines were immunoblotted with anti-FGFR1αECD Ab. (B) A structural representation of GST-OPCML 1+2 and GST-OPCML 1+2+3 constructs with subsequent Western blot analysis of the fusion proteins. […] FGFR1 was also shown to bind GST-OPCML 1+2+3 and GST-OPCML 1+2 from the same pull-down with lysate from SK-OV-3 cells transiently transfected with FGFR1 cDNA.
(§2) FIG. 17: OPCML directly interacts with EphA2, FGFR1 and HER2, but not EGFR. (A) Immuno-precipitation (IP) for OPCML showing positive immunoblots for EphA2, FGFR1 and HER2. […] (B) A schematic representation of GST-OPCML domain 1-3 construct. (C). […] The presence of OPCML fusion proteins in these assays was verified by immunoblotting (IB, bottom panel).
(§3) Pull-down assays were performed using recombinant GST-OPCML fusion proteins bound to magnetic glutathione beads (Promega). Cell lysates prepared as for immunoprecipitation, proteins produced using TNT in vitro Rabbit reticulocyte lysate expression system (Promega) or expressed in bacteria were used analysed for interactions.

OPCML [2] = assay: induction of OPCML expression by growth factors in serum starved SK-OV-3 cells (qRT-PCR, Western); type: cell-based; details: 50 ng/ml EGF
Procedure: Quantitative reverse-transcription PCR (qRT-PCR) analysis of gene expression was carried out on an Applied Biosystems 7900HT thermal cycler using SYBR green I technology. Premixed qPCR reagent, Platinum® Quantitative PCR SuperMix-UDG with ROX (Invitrogen, UK), was used for amplification. The expression of specific genes was normalized to the expression of the endogenous control gene HPRT1.

OPCML [3] = assay: induction of OPCML expression by growth factors in a panel of ovarian cancer cell lines; type: cell-based; details: data not shown
Description: OPCML is a non-transmembrane, external lipid leaflet GPI-anchored protein, and is frequently lost from cells by somatic inactivation of the gene.

[4] = tested on: HER2 3+ recurrent disease (ovarian and breast cancer); assay: response to lapatinib in patients by RECIST criteria versus OPCML IHC; type: in vivo, human; design: key: SD = stable disease; PR = partial response; PD = progressive disease; details: individual cases 1-8, HER2 3+
Procedure: We next tested whether OPCML could be used to predict response to lapatinib in ovarian and breast cancer. Histology was obtained by new biopsy of recurrent disease and TTP (time in months to progression from start of therapy until progression) assessed. Docetaxel and anthracyclines were administered for a maximum of 6 cycles and capecitabine was administered until disease progression or unacceptable toxicity. HER2 immunohistochemistry (IHC) was performed using the Dako Herceptest kit: 3+ in all cases.

phospho-ERK [5] = assay: lapatinib-induced pERK attenuation after OPCML siRNA knockdown in OSE-C2 cells
Procedure: as §4
Endogenous OPCML was knocked down in OSE-C2 cells by transient transfection of a specific pool of 3 siRNAs (Stealth knockdown-Invitrogen) using lipofectamine RNAiMAX reagent.
We then investigated whether siRNA knockdown of physiological OPCML expression in normal OSE-C2 cells could affect sensitivity to lapatinib.

EGFR = molecular target: T1, EGFR (Homo sapiens, UniProt P00533); assay: GST-OPCML pull-down assay; type: binding; details: SK-OV-3 cell lysate
T1 construct: pull-down experiments with either SK-OV-3 cell lysates (expressing HER2 and EGFR); endogenous in cells; host or cells: SK-OV-3
Procedure: as §1, §2, §3

HER2 = assay: GST-OPCML pull-down assay; type: binding; details: SK-OV-3 lysate or in vitro translated HER2ECD
Procedure: as §1, §2, §3

[6] = OPCML transfected versus control cells, EGF induced phospho-ERK

Sequence of FGFR1 (P11362 22-376 limits assumed): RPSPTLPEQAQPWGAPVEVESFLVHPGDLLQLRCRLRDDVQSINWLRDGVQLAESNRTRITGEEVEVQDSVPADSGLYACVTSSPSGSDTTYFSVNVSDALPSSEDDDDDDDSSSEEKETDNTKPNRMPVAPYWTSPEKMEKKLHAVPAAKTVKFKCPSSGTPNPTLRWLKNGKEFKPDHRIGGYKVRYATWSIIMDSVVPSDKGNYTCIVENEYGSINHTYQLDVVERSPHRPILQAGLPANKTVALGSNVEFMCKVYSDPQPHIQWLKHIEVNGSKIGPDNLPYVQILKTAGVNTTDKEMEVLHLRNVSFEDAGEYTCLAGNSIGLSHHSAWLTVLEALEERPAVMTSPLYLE

**Q.** Which OPCML mediated sensitization (phospho-ERK [1]; [6]) does the source give for `COc1cc2ncnc(Nc3ccc(F)c(Cl)c3)c2cc1OCCCN1CCOCC1` [gefitinib] here?
**A.** Its OPCML mediated sensitization is “no sensitization”.

**Q.** “GST-OPCML D2+3: GST/OPCML domain fusion protein with domains 2 and 3” was tested. Which “interaction with FGFR1” value (FGFR1) did it give?
**A.** Its value is “interacted with FGFR1”.

**Q.** How did the “time of maximal OPCML mRNA expression” value (OPCML [2]) turn out when “EGF: human recombinant epidermal growth factor (Promega)” was run?
**A.** The value was 30 min.

**Q.** And the “ovarian cancer cell lines with rapid OPCML RNA and protein expression, of lines treated” value (OPCML [3])?
**A.** The value was 4/4.

**Q.** How did the Response to lapatinib [4] turn out when `CS(=O)(=O)CCNCc1ccc(-c2ccc3ncnc(Nc4ccc(OCc5cccc(F)c5)c(Cl)c4)c3c2)o1.Cc1ccc(S(=O)(=O)O)cc1.Cc1ccc(S(=O)(=O)O)cc1.O` [lapatinib, N-(3 chloro-4-{[(3-fluorophenyl)methyl]oxy}phenyl)-6-[5-({[2(methylsulfonyl)ethyl]amino}methyl)-2-furanyl]-4-quinazolinamine bis (4 methylbenzenesulfonate) monohydrate] was run?
**A.** Its Response to lapatinib is “SD (2×) and PD (2×) and PR (4×)”.

**Q.** And the “extent of inhibition of pERK signal” value (phospho-ERK [5]; knockdown by siRNA to OPCML, P=0.0009)?
**A.** The value was 47%.

**Q.** And the “reduction of EGF-induced pERK signal” value (phospho-ERK [5]; non-silencing (non-si) duplex, densitometry, mean of 3 experiments)?
**A.** Its value is 70%.

**Q.** What about the “increase in sensitivity: reduction of effective concentration required to abolish the phospho-ERK signal” value (phospho-ERK [1]; BKS2.1 compared with SKOBS-V1.2, EGF 50 ng/ml, monohydrate) of the same molecule?
**A.** The value was > 10 fold and 10 fold.

**Q.** What about the OPCML mediated sensitization (phospho-ERK [1]; [6]) of the same molecule?
**A.** The OPCML mediated sensitization was “strong OPCML mediated sensitization”.

**Q.** Which “interaction with FGFR1” value (FGFR1) does the source give for “GST-OPCML D1+2: truncated OPCML ECD lacking Ig domain 3 fused to GST” here?
**A.** Its value is “interacted with FGFR1”.

**Q.** And the “interaction with FGFR1” value (FGFR1; listed as GST-OPCML 1+2)?
**A.** The value was “shown to bind”.

**Q.** `C#Cc1cccc(Nc2ncnc3cc(OCCOC)c(OCCOC)cc23)c1` [erlotinib] was tested. Which OPCML mediated sensitization (phospho-ERK [1]) did it give?
**A.** Its OPCML mediated sensitization is “no sensitization”.

**Q.** What does the source list for “GST-OPCML D1+2+3: full length OPCML extracellular domain (Ig domains 1-3) fused to GST”?
**A.** binding of EGFR (EGFR): no binding of EGFR; interaction with FGFR1 (FGFR1): interacted with FGFR1; interaction with FGFR1 (FGFR1; listed as GST-OPCML 1+2+3): shown to bind; interaction with FGFR1 (FGFR1; listed as GST-OPCML 1-3): specific binding; interaction with FGFR1 (FGFR1; listed as GST-OPCML D1-3): interacting specifically; interaction with HER2 (HER2): interacted; interaction with HER2 (HER2; listed as GST-OPCML 1+2+3): binding of HER2; interaction with HER2 (HER2; listed as GST-OPCML 1-3): specific binding; interaction with HER2 (HER2; listed as GST-OPCML D1-3): interacting specifically
